Results published in patent US20110152207A1, “USE OF VITAMIN D GLYCOSIDES AND SULFATES FOR TREATMENT OF DISEASE” (priority 2009, published 2011).

What was measured:
LNCaP cells = assay: LNCaP cell proliferation (CELLTITER BLUE); type: cell-based, human; conditions: six days, control = 100
Procedure: LNCaP cells (ATCC # CRL-1740) are malignant prostate cancer cells originally obtained from a lymph node of a person whose prostatic cancer had metastasized to the lymph node. LNCaP cells were grown in tissue culture using RPMI-1640 media with 10% fetal bovine serum. Wells of two 48-well tissue culture plates were seeded with 5000 LNCaP cells/well. […] Half the media was replaced with fresh media with treatments on the third day of the treatment period. By day 6 of treatment, wells of control untreated cells were approximately 60% confluent. The live cell numbers in each well at the end of treatment were assessed using the “CELLTITER BLUE”-brand assay kit (Promega Corp., Madison, Wis.). The assay is based on the ability of living cells to convert a redox dye (resazurin) into a fluorescent end product (resorufin).

[1] = Hypercalcemic effect: plasma calcium in rats under continuous subcutaneous infusion; type: in vivo; conditions: for Plasma Calcium Mean ± SD: 12th day, in mg/dL (unit assumed); for Significantly greater than control? Duncan's Multiple Range Test: plasma calcium
Procedure: The pumps were filled aseptically with the appropriate dose of drug dissolved in propylene glycol. The pumps were surgically implanted under the skin on the dorsal neck and shoulder area aseptically. On the 12th day of infusion, rats were deeply anesthetized (isofluorane inhalation) and blood was collected by cardiac puncture for plasma calcium determination. The plasma calcium levels were determined by standard methods.

[2] = tested on: β-glucuronidase activity, duodenum lumen contents; assay: β-glucuronidase cleavage in duodenum lumen contents, free 1,25-D3 by RIA; type: in vitro ADME, rats; conditions: 2100 pg added
Procedure: The proximal 25 cm of duodenum/jejunum, the caudal 12 cm of ileum, and the cranial 12 cm of colon were removed. The contents from the lumen of each section were flushed with 3 ml water, collected, and pooled. Three-ml aliquots of intestinal contents were placed into tubes. To the tubes, either 2100 pg (3.53 pmoles) β-gluc-1,25-D3 was added and incubated at 37° C. for 0, 1, 3, or 6 hrs, or 150 pg (0.36 pmoles) of 1,25-D3 was added and incubated for 0 or 6 hrs. […] Acetonitrile (3 ml) was added to each tube after incubation to end all enzymatic activity, after which the 1,25-D3 was extracted. Tritiated 1,25-D3 was added to each tube to assess extraction efficiency. The preparations were cleaned by HPLC, and the samples were analyzed for 1,25-D3 content by RIA (Heartland Assays, Ames, Iowa) (Hollis et al., J. Steroid Biochem. Mol. Biol. 2007 103(3-5):473-6).

4T1 tumor cells = assay: 4T1 mammary tumor growth in BALB/c mice; type: in vivo; conditions: 280 ng/day s.c. daily, eight days
Procedure: 4T1 tumor cells, originally isolated from a BALB/cfC3H mouse mammary gland, were obtained from American Tissue Culture Collection (Manassas, Va.). The tumor growth and metastatic spread of 4T1 cells in BALB/c mice very closely mimic human breast cancer. This syngeneic tumor graft is an animal model for stage 1V human breast cancer (Pulaski et al. Cancer Res. 1998, 58:1486-1493). The cells were grown in RPMI-1640 media supplemented with 10% fetal bovine serum. When cell growth reached about 70% confluency, the cells were lifted from the flasks with standard removing medium and rinsed with 0.25% trypsin, 0.53-mM EDTA solution (trypsin-EDTA solution). This solution was removed and an additional 1 to 2 ml of trypsin-EDTA solution was added. The flask was allowed to sit at 37.0° C. until the cells detached. Fresh culture medium was added, and the cells were aspirated for enumeration using a hemocytometer. RPMI-1640 and Matrigel (BD Biosciences, Bedford, Mass.) solutions were prepared and maintained at 4° C. to keep the Matrigel liquid. […] Sixteen days after implantation of the cells, tumors approximately 0.5-0.7 cm in diameter (as measured with calipers) formed under the skin of many of the mice. […]

SMILES: C=C1/C(=C\C=C2/CCC[C@]3(C)[C@@H]([C@H](C)CCCC(C)(C)O[C@@H]4O[C@H](C(=O)O)[C@@H](O)[C@H](O)[C@H]4O)CC[C@@H]23)C[C@@H](O)C[C@@H]1O [β-gluc-1,25-D3, 25-β-glucuronide-1,25-dihydroxyvitamin D3]
- Proliferation index (Mean ± SEM) (LNCaP cells; 20 nM): 95.4 ± 2.4
- Proliferation index (Mean ± SEM) (LNCaP cells; 100 nM): 73.1 ± 9.5
- Plasma Calcium Mean ± SD ([1]; 14 ng/day continuous s.c. infusion): 10.63 ± 0.20
- increase in plasma calcium ([1]; 70 ng/day): no increase in plasma calcium
- Plasma Calcium Mean ± SD ([1]; 70 ng/day continuous s.c. infusion): 10.71 ± 0.15
- Plasma Calcium Mean ± SD ([1]; 250 ng/day continuous s.c. infusion): 11.02 ± 0.49
- Plasma Calcium Mean ± SD ([1]; 350 ng/day continuous s.c. infusion): 11.00 ± 0.25
- symptoms of hypercalcemia (feed intake) ([1]; 500 ng/day): no evidence of a reduction in feed intake or other symptoms
- Plasma Calcium Mean ± SD ([1]; 500 ng/day continuous s.c. infusion): 11.33 ± 0.38
- lowest dose inducing a statistically significant increase in plasma calcium levels ([1]; continuous s.c. infusion): 250 ng/day
- Significantly greater than control? Duncan's Multiple Range Test ([1]; 250 ng/day): Yes
- Significantly greater than control? Duncan's Multiple Range Test ([1]; 350 ng/day): Yes
- Significantly greater than control? Duncan's Multiple Range Test ([1]; 500 ng/day): Yes
- hypercalcemic effect, fold less than the native hormone ([1]; versus 1,25-D3): at least 4 fold
- Measured Free 1,25-dihydroxy vitamin D ([2]; 0 hrs incubation): 29 pg
- Measured Free 1,25-dihydroxy vitamin D ([2]; 1 hr incubation): 38 pg
- Measured Free 1,25-dihydroxy vitamin D ([2]; 3 hrs incubation): 63 pg
- Measured Free 1,25-dihydroxy vitamin D ([2]; 6 hrs incubation): 105 pg
- tumor weight mean±SEM (4T1 tumor cells; BALB/c mice): 2.01 ± 0.36 g
- effect on the growth of 4T1 tumor cells (4T1 tumor cells; P=0.034): significant anti-proliferative effect
